Measured values published in patent US8188119B2, “Pyridine derivatives substituted with heterocyclic ring and γ-glutamylamino group, and antifungal agents containing same” (Eisai R&D Management Co., Ltd, priority 2008, dated 2012).
Values after ≈ are worked out from the molar mass of the structure shown. Read-outs that look alike come from different tables or passages of the source.

Assays:
[1] = Pharmacokinetic evaluation of compound of Example 1 in mice (plasma concentration, LC-MS/MS); type: in vivo; details: female ICR mice, tail vein, 3 mg/kg
Method: 1. Pharmacokinetic Evaluation of Compound of Example 1 in Mice […] The blood samples were put in sampling tubes and stored under ice cooling, after which they were centrifuged for 5 minutes at 10,500×g and at 4° C. The plasma thus obtained was accurately divided into 10 μL amounts and stored at −20° C. until they were analyzed. The plasma concentrations of the compound of Example 1 and the active form thereof were measured using a liquid chromatography mass spectrometer (LC-MS/MS: Waters, Quattro Ultima Pt), and quantified by internal standard method. […] MultiScreen™) and analyzed by LC-MS/MS (Waters, Quattro Ultima Pt). In the chromatogram thus obtained, the surface area of the peaks for the compound of Example 1, the active form thereof (the parent compound of the compound of Example 1), and the internal standard substance were analyzed with analytic software (Waters: MassLynx 4.0), and the concentration of the compound included in the plasma was calculated by internal standard method. The active form concentration after administration of the compound of Example 1 was corrected with the molecular weight ratio, that is, the value of (the molecular weight of the compound of Example 1)/(the molecular weight of the active form).

[2] = buffer
[3] = Comparative test of solubility in water (Britton-Robinson buffer); type: physicochemical; details: for solubility: aqueous buffer, Britton-Robinson buffer (ionic strength: 0.3), 25° C.; for Solubility in water compared with the parent compound: conclusion from Table 1
[4] = Pharmacokinetic evaluation of compounds of Examples 2 and 3 in mice (plasma concentration, LC-MS); type: in vivo; details: female ICR mice, tail vein, 3 mg/kg as active form equivalent; for Plasma concentration of the administered compound: 20 min to 8 h; for Plasma concentration of the administered compound / Concentration of the active form in plasma after administration of the compound: FIG. 2
Method: 2. Pharmacokinetic Evaluation of Compound of Examples 2 and 3 in Mice
The compounds of Examples 2 and 3 were dissolved in respective concentrations of 1 and 1.5 mg/mL with 5% glucose (Otsuka Pharmaceutical) containing a 10 mM hydrochloric acid solution (Wako Pure Chemicals), and the active form was dissolved in a concentration of 0.5 mg/mL in 5% glucose (Otsuka Pharmaceutical) containing a 10 mM hydrochloric acid solution (Wako Pure Chemicals).
Using seven-week-old female ICR mice (Charles River Japan), with two mice per group, the compound of the present invention and the active form thereof were administered into the tail vein in a dose of 3 mg/kg, calculated as an active form equivalent. The tail vein was punctured 20 minutes, 45 minutes, and 1.5, 3, 5, and 8 hours after administration, and blood was collected with a heparin-treated pipette. The blood samples were put in sampling tubes and stored under ice cooling, after which they were centrifuged for 5 minutes at 10,500×g and at 4° C. The plasma thus obtained was accurately divided into 5 μL amounts and stored at −20° C. until they were analyzed.
The plasma concentrations of the compounds of Examples 2 and 3 and the active form thereof were measured using a liquid chromatography mass spectrometer (LC-MS: Waters, ZQ mass detector), and quantified by internal standard method. Imipramine hydrochloride (Sigma) was dissolved in a mixed solution of acetonitrile and methanol (9:1) so that the concentration would be 1 μmol/L, to prepare an internal standard substance solution (IS solution). The plasma was melted, after which 50 μL of IS solution was added thereto and mixed while still cooled with ice, and this was centrifuged (deproteinated) for 10 minutes at 1607×g and at 4° C., after which the supernatant was analyzed by LC-MS (Waters, ZQ mass detector). In the chromatogram thus obtained, the surface area of the peaks for the compounds of Examples 2 and 3, the active form thereof, and the internal standard substance were analyzed with analytic software (Waters: MassLynx 4.0), and the concentration of the compound included in the plasma was calculated by internal standard method.

[5] = Stability in solution in Britton-Robinson buffer; details: Britton-Robinson buffer (ionic strength: 0.3), 25° C.
[6] = pH 3, read-out: Solubility (mg/mL) pH 3
[7] = pH 7, read-out: Solubility (mg/mL) pH 7

Conversion into the active form in the bodies of the mice [1] | Plasma concentration of the administered compound ([1]; FIG. 1) | Stability in solution (remainder (%) after 24 h in dark place) pH 3 [2] [%] | Stability in solution (remainder (%) after 24 h in dark place) pH 7 [2] [%] | solubility [3, 6] [mg/mL] | solubility [3, 7] [mg/mL] | Conversion into the active form in the bodies of the mice [4] | Plasma concentration of the administered compound [4] | Concentration of the active form in plasma after administration of the compound [4] | Stability in solution (remainder (%) after 24 h in dark place) pH 2 ([5]; pH 2 (printed in pH 3 column), 24 h in dark place) | Stability in solution (remainder (%) after 24 h in dark place) pH 4 ([5]; pH 4 (printed in pH 3 column), 24 h in dark place) | Stability in solution (remainder (%) after 24 h in dark place) pH 7 ([5]; pH 7, 24 h in dark place) [%] | SMILES | Plasma concentration of the active form after administration of the compound ([1]; FIG. 1) | Solubility in water compared with the parent compound [3]
rapidly converted into the active form | decreased quickly after administration | 96 | 92 | 1.1 (≈ 2260 µM) | 0.3 (≈ 615 µM) | – | – | – | – | – | – | N[C@@H](CCC(=O)Nc1ncccc1-c1cc(Cc2ccc(COc3ccccn3)cc2)no1)C(=O)O [Example 1, (S)-2-Amino-4-(3-(3-(4-(pyridin-2-yloxymethyl)-benzyl)-isoxazol-5-yl)-pyridin-2-ylcarbamoyl)-butyric acid] | increased quickly from immediately after administration | higher solubility in water than does the parent compound
– | – | 88 | 44 | 45 (≈ 89700 µM) | 0.2 (≈ 399 µM) | rapidly converted into the active form | not detected | rose sharply after administration | – | – | – | COC(=O)[C@@H](N)CCC(=O)Nc1ncccc1-c1cc(Cc2ccc(COc3ccccn3)cc2)no1 [Example 2, (S)-2-Amino-4-(3-{-[4-(pyridin-2-yloxymethyl)-benzyl]soxazol-5-yl}-pyridin-2-ylcarbamoyl)-butyric acid methyl ester] | – | higher solubility in water than does the parent compound
– | – | 116 | 82 | 12 (≈ 21500 µM) | 1.1 (≈ 1970 µM) | rapidly converted into the active form | not detected | rose sharply after administration | – | – | – | CN(C)CCOC(=O)[C@@H](N)CCC(=O)Nc1ncccc1-c1cc(Cc2ccc(COc3ccccn3)cc2)no1 [Example 3, (S)-2-Amino-4-(3-{3-[4-(pyridin-2-yloxymethyl)-benzyl]-isoxazol-5-yl}-pyridin-2-ylcarbamoyl)-butyric acid 2-dimethylamino-ethyl ester] | – | higher solubility in water than does the parent compound
– | – | – | – | 0.29 (≈ 809 µM) | 0.001 (≈ 2.79 µM) | – | – | – | 90 (pH 2) % | 99 (pH 4) % | 95 | Nc1ncccc1-c1cc(Cc2ccc(COc3ccccn3)cc2)no1 [Parent compound, 3-(3-(4-(Pyridin-2-yloxymethyl)-benzyl)-isoxazol-5-yl)-pyridin-2-ylamine] | – | –
